Legend:
[1] = biological target: Phosphatidylinositol 4,5-bisphosphate 3-kinase catalytic subunit beta isoform (Homo sapiens) (UniProt P42338); assay: Selectivity interaction (KinomeScan (DiscoverX)) EUB0000014b PIK3CB; conditions: at 1 µM
[2] = biological target: Receptor-type tyrosine-protein kinase FLT3 (Homo sapiens) (UniProt P36888); assay: Selectivity interaction (Kinase panel) EUB0000214b FLT3; conditions: at […]
[3] = biological target: 5-hydroxytryptamine receptor 2B (Homo sapiens, UniProt P41595); assay: Selectivity interaction (GPCR panel (PDSP screen)) EUB0000336a HTR2B; conditions: at 1 µM
[4] = biological target: Serine/threonine-protein kinase Nek5 (Homo sapiens) (UniProt Q6P3R8); assay: Selectivity interaction (KinomeScan (DiscoverX)) EUB0000336a NEK5; conditions: at 1 µM
Chain of Serine/threonine-protein kinase Nek5 (Homo sapiens) (Q6P3R8 whole entry): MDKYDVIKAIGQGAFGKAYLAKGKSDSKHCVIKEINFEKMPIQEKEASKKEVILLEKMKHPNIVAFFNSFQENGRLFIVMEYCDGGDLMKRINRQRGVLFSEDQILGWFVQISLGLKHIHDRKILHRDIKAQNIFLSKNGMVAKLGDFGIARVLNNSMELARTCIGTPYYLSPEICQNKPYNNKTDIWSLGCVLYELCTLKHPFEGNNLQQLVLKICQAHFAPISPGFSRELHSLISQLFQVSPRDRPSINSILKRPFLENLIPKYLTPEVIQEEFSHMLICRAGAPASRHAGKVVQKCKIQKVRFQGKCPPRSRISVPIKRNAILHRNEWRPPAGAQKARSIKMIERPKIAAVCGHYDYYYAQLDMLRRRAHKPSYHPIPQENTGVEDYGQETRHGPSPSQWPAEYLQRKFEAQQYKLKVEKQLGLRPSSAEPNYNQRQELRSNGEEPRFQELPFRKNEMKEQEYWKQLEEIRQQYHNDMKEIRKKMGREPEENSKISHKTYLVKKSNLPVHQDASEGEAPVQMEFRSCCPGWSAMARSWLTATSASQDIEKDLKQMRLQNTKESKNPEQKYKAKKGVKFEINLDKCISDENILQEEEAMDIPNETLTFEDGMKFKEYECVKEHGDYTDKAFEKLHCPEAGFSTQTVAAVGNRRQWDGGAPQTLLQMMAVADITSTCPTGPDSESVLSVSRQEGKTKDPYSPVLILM

[5] = biological target: Epidermal growth factor receptor (Homo sapiens, UniProt P00533); assay: Selectivity interaction (KinomeScan (DiscoverX)) EUB0000336a EGFR; conditions: at 1 µM
Chain of Epidermal growth factor receptor (P00533 whole entry): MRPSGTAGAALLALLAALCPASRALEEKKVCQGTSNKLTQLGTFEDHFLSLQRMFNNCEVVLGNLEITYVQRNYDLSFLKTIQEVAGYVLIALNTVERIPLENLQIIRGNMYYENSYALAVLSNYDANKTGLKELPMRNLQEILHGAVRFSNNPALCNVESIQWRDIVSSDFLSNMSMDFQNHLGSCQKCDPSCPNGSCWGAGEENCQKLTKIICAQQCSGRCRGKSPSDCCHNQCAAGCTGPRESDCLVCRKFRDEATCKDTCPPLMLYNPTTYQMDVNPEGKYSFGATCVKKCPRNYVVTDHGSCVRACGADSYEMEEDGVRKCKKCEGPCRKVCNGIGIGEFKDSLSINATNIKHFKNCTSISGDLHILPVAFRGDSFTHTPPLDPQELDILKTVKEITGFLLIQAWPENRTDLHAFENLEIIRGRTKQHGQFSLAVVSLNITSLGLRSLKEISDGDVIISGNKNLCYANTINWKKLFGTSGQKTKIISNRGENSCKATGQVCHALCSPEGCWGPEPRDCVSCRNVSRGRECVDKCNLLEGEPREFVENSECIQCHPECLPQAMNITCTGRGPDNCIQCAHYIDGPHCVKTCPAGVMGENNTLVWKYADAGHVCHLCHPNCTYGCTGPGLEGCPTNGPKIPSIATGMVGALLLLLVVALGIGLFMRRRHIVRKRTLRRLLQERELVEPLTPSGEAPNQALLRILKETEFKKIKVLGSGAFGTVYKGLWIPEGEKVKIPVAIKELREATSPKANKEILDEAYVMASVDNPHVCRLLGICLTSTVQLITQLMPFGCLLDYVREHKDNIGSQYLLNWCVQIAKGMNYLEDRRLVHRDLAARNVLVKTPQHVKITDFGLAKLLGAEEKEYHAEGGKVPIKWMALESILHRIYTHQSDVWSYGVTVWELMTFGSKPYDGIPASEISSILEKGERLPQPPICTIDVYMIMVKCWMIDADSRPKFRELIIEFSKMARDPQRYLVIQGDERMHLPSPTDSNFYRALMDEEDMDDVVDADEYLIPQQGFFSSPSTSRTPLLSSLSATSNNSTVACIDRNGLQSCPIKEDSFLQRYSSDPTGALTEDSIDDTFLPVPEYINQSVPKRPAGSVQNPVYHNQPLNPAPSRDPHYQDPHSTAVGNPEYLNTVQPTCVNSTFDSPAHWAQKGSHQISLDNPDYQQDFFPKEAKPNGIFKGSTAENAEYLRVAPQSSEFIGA

[6] = biological target: T1, Phosphatidylinositol 5-phosphate 4-kinase type-2 gamma (Homo sapiens) (UniProt Q8TBX8); assay: Selectivity interaction (KinomeScan (DiscoverX)) EUB0000336a PIP4K2C; conditions: at 1 µM
T1 sequence (whole entry): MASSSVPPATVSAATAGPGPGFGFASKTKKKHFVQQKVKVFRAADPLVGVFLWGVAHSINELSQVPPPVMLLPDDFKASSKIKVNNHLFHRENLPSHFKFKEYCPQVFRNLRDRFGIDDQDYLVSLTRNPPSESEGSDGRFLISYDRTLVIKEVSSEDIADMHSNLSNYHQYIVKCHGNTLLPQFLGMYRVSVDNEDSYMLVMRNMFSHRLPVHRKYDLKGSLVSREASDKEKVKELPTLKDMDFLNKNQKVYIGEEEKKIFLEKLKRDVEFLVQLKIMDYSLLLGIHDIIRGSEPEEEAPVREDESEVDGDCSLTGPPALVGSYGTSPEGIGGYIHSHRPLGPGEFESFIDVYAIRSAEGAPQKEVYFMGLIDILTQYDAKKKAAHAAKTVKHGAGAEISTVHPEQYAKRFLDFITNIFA

[7] = biological target: Tyrosine-protein kinase receptor Tie-1 (Homo sapiens) (UniProt P35590); assay: Selectivity interaction (KinomeScan (DiscoverX)) EUB0000336a TIE1; conditions: at 1 µM
[8] = biological target: Phosphatidylinositol 4,5-bisphosphate 3-kinase catalytic subunit alpha isoform (Homo sapiens, UniProt P42336); assay: Selectivity interaction (KinomeScan (DiscoverX)) EUB0000336a PIK3CA; conditions: at 1 µM
[9] = biological target: Casein kinase I isoform epsilon (Homo sapiens, UniProt P49674); assay: Selectivity interaction (Radioisotope filter binding assay (Reaction Biology)) EUB0000696a CSNK1E; conditions: at 1 µM
Chain of Casein kinase I isoform epsilon (P49674 whole entry, looked up, canonical isoform): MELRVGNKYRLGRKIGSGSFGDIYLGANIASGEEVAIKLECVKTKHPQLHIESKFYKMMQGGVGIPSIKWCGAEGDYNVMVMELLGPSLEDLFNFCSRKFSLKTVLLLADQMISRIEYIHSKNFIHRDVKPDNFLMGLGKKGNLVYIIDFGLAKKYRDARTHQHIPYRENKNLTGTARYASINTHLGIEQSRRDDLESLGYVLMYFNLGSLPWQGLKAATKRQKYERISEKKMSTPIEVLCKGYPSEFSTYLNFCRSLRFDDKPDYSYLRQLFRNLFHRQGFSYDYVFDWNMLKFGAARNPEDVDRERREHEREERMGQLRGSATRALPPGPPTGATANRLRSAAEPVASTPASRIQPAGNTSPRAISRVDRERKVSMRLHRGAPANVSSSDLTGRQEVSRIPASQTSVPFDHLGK

[10] = biological target: Serine/threonine-protein kinase DCLK2 (Homo sapiens) (UniProt Q8N568); assay: Selectivity interaction (KinomeScan (Ambit)) EUB0000687a DCLK2; conditions: at 10 µM
[11] = biological target: Serine/threonine-protein kinase PLK4 (Homo sapiens) (UniProt O00444); assay: Selectivity interaction (KinomeScan (Ambit)) EUB0000687a PLK4; conditions: at 10 µM
[12] = biological target: T2, Adenosine receptor A1 (Homo sapiens) (UniProt P30542); assay: Selectivity interaction (Eurofins CEREP Diversity Profiling (71 receptors, ion channels, and 25 other enzymes)) EUB0000231c ADORA1; conditions: at 10 µM
T2 sequence (whole entry): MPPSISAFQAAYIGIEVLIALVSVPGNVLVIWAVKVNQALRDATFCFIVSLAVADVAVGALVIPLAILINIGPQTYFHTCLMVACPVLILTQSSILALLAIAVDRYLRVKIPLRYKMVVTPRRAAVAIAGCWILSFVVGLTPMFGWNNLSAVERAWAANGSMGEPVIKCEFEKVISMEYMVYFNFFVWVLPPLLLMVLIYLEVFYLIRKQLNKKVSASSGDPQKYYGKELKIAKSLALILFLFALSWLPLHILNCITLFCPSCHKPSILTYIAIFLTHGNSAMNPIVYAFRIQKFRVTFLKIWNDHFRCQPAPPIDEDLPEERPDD

[13] = biological target: T3, Gamma-aminobutyric acid receptor subunit alpha-1 (Homo sapiens) (UniProt P14867); assay: Selectivity interaction (Eurofins CEREP Diversity Profiling (71 receptors, ion channels, and 25 other enzymes)) EUB0000231c GABRA1; conditions: at 10 µM
T3 sequence (whole entry): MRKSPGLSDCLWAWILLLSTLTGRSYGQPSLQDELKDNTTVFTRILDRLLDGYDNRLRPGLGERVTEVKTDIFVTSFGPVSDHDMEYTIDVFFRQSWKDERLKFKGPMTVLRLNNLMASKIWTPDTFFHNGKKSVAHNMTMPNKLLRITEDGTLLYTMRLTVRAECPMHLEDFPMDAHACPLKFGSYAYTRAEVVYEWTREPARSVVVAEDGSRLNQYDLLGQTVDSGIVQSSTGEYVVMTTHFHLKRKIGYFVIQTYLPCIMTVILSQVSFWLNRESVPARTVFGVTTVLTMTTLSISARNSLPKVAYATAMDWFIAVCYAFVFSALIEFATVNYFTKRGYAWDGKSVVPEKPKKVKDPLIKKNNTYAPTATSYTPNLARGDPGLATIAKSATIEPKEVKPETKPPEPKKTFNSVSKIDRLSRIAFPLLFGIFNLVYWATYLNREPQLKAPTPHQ

[14] = biological target: cGMP-dependent 3',5'-cyclic phosphodiesterase (Homo sapiens) (UniProt O00408); assay: Selectivity interaction (Eurofins CEREP Diversity Profiling (71 receptors, ion channels, and 25 other enzymes)) EUB0000231c PDE2A; conditions: at 10 µM
[15] = biological target: cGMP-inhibited 3',5'-cyclic phosphodiesterase 3A (Homo sapiens, UniProt Q14432); assay: Selectivity interaction (Eurofins CEREP Diversity Profiling (71 receptors, ion channels, and 25 other enzymes)) EUB0000231c PDE3A; conditions: at 10 µM
[16] = biological target: 3',5'-cyclic-AMP phosphodiesterase 4D (Homo sapiens) (UniProt Q08499); assay: Selectivity interaction (Eurofins CEREP Diversity Profiling (71 receptors, ion channels, and 25 other enzymes)) EUB0000231c PDE4D; conditions: at 10 µM
Chain of 3',5'-cyclic-AMP phosphodiesterase 4D (Homo sapiens) (Q08499 whole entry): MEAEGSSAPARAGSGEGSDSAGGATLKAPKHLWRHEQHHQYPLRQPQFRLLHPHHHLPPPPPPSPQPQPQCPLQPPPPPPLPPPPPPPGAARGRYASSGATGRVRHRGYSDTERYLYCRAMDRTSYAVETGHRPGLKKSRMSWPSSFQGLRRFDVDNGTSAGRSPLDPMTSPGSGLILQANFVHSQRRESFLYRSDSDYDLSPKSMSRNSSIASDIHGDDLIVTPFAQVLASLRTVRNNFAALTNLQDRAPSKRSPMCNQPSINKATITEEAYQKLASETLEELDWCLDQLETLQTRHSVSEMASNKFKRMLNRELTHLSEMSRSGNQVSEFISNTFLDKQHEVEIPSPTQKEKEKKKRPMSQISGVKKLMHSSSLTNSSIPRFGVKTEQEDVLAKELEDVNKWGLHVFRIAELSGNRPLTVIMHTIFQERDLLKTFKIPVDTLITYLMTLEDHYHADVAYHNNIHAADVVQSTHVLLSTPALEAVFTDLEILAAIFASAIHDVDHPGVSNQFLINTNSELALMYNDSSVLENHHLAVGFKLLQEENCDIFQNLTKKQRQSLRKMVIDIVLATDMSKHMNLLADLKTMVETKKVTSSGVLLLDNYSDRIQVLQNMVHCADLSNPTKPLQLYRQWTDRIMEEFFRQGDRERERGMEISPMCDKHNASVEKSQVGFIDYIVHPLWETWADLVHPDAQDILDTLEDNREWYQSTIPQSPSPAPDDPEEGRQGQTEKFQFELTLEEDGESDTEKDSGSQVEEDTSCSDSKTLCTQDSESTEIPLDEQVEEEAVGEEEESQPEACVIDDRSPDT

[17] = biological target: MAP/microtubule affinity-regulating kinase 3 (Homo sapiens) (UniProt P27448); assay: Selectivity interaction (KinomeScan (DiscoverX)) EUB0000315b MARK3; conditions: at 1 µM
[18] = biological target: SRSF protein kinase 2 (Homo sapiens) (UniProt P78362); assay: Selectivity interaction (KinomeScan (DiscoverX)) EUB0000315b SRPK2; conditions: at 1 µM
Chain of SRSF protein kinase 2 (Homo sapiens) (P78362 whole entry, looked up): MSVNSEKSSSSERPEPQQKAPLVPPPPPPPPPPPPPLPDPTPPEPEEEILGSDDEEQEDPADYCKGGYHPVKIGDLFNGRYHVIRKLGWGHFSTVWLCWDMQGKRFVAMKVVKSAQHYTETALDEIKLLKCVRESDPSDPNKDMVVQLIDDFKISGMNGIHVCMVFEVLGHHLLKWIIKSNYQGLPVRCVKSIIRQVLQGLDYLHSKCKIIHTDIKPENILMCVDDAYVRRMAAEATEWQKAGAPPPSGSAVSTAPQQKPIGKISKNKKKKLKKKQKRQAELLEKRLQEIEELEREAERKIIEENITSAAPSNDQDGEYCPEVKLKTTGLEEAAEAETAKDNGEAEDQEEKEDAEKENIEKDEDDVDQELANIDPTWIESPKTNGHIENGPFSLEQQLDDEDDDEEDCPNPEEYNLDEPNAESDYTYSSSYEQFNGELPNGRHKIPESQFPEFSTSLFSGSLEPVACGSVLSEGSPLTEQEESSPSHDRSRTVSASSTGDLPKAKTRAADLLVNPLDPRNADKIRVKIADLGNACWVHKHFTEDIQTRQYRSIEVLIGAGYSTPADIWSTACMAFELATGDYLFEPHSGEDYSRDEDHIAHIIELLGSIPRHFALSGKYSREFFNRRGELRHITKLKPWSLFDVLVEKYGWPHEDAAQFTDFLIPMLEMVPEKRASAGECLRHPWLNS

[19] = test system: Receptor-type tyrosine-protein kinase FLT3 (Homo sapiens), P36888 [UNDEFINED MUTATION]; assay: Selectivity interaction (KinomeScan (DiscoverX)) EUB0000315b FLT3; conditions: at 1 µM
Chain of Receptor-type tyrosine-protein kinase FLT3 (Homo sapiens), P36888 [UNDEFINED MUTATION] (P36888 whole entry, looked up, change not shown): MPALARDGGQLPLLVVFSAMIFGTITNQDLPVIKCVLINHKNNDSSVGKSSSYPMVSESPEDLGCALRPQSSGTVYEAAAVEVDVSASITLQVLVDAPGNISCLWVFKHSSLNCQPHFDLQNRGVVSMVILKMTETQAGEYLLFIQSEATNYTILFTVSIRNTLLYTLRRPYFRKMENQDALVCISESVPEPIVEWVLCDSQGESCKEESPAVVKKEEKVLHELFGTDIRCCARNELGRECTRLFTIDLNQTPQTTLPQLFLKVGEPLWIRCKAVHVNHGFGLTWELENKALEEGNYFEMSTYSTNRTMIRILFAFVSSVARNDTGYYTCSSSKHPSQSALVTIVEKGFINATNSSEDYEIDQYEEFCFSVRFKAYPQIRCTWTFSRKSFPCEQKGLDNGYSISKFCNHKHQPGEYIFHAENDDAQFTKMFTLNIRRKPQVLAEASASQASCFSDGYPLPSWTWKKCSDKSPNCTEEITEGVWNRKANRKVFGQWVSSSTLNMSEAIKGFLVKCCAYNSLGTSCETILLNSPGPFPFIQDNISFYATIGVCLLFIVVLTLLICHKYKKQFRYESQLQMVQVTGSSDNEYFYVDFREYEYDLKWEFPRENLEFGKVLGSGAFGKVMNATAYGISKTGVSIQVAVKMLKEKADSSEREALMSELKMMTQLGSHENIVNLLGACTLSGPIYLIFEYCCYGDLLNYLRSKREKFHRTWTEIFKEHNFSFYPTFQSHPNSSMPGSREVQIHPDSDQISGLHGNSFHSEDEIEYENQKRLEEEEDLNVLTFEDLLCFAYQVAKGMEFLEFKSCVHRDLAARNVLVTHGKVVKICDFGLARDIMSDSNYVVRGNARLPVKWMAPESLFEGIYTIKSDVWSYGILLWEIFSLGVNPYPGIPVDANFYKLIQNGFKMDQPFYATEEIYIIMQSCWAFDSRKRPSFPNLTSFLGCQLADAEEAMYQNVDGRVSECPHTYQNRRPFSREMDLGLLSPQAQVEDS

[20] = biological target: 5-hydroxytryptamine receptor 7 (Homo sapiens, UniProt P34969); assay: Selectivity interaction (GPCR panel (PDSP screen)) EUB0000317b HTR7; conditions: at 10 µM
[21] = biological target: Serine/threonine-protein kinase 38-like (Homo sapiens, UniProt Q9Y2H1); assay: Selectivity interaction (KinomeScan (DiscoverX)) EUB0000317b STK38L; conditions: at 1 µM
[22] = biological target: Serine/threonine-protein kinase 17A (Homo sapiens) (UniProt Q9UEE5); assay: Selectivity interaction (Kinase panel (ProQinase)) EUB0000631a STK17A; conditions: at 1 µM
[23] = biological target: T4, Mitogen-activated protein kinase 15 (Homo sapiens) (UniProt Q8TD08); assay: Selectivity interaction (Dundee panel (140 kinases and 19 lipid kinases)) EUB0000631a MAPK15; conditions: at 1 µM
T4 sequence (whole entry): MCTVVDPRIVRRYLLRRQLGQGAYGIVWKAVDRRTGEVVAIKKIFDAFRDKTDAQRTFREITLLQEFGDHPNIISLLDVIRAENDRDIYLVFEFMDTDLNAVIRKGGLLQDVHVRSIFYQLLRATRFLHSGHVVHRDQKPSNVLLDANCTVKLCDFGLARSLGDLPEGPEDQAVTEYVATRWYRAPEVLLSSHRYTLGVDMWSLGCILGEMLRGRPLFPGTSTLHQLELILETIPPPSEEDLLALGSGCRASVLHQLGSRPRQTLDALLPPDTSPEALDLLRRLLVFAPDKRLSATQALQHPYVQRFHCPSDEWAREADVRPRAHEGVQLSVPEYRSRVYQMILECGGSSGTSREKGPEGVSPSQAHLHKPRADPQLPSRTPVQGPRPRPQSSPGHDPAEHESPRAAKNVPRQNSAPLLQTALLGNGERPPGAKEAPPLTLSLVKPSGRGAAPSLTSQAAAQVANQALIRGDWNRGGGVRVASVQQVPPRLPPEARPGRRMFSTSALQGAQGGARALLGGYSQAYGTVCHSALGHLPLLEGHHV

[24] = biological target: Mitogen-activated protein kinase kinase kinase 7 (Homo sapiens) (UniProt O43318); assay: Selectivity interaction (Dundee panel (140 kinases and 19 lipid kinases)) EUB0000631a MAP3K7; conditions: at 1 µM
[25] = biological target: Substance-K receptor (Homo sapiens) (UniProt P21452); assay: Selectivity interaction (CEREP panel (ligand receptors, ion channels, transporters)) EUB0000330a TACR2; conditions: at 1 µM
CREB-binding protein = CREB-binding protein (Homo sapiens, UniProt Q92793); assay: Selectivity interaction (Bromodomain panel (DSF assay)) EUB0000330a CREBBP

Chain of Receptor-type tyrosine-protein kinase FLT3 (Homo sapiens) (P36888 whole entry): as the sequence (P36888 whole entry, looked up, change not shown) above

Nc1ccc(C(=O)Nc2cccc(-c3nc(N4CCOCC4)c4oc5ncccc5c4n3)c2)cn1
% of control [1]: 9.8%

O=C(c1ccc(C(=O)N2CCC(N3CCCC3)CC2)c(Nc2ccccc2)c1)N1CCC(N2CCCC2)CC1
% of control [2]: 64%

Cc1nc(Cc2cccc(C(F)(F)F)c2)sc1-c1ccc(C(N)=O)nc1
% of inhibition [3]: 34%
% of control [4]: 35%
% of control [5]: 0%
% of control [6]: 0.3%
% of control [7]: 28%
% of control [8]: 15%

CC(C)Oc1ccc(-c2nn([C@@H](C)c3oc4ccc(F)cc4c(=O)c3-c3cccc(F)c3)c3ncnc(N)c23)cc1F
% of control [9]: 39%

CCOc1cc(C(=O)N2CCC(N3CCN(C)CC3)CC2)ccc1Nc1ncc2c(n1)N(C1CCCC1)c1ccccc1C(=O)N2C
% of control [10]: 3.6%
% of control [11]: 5.1%

CC(=O)c1cc(-c2cc(C(=O)NC3CC3)ccc2C)c2ncccn12
% of control [12]: 14%
% of control [13]: 47%
% of control [14]: 25%
% of control [15]: 48%
% of control [16]: 28%

Cn1nc(C(F)(F)F)cc1-c1cnc(N2CCc3cc(S(=O)(=O)Nc4c(F)cc(Cl)cc4F)cc(N4CCCC4=O)c32)nc1
% of control [17]: 12%
% of control [18]: 34%
% of control [19]: 32%

Cc1cc(-n2nc(Cc3cc(F)cc(C(F)(F)F)c3)nc2C)ccc1C(N)=O
inhibition [20]: 21%
% of control [21]: 49%

CC(C)(O)CNc1ncc(-c2ccnc(Nc3ccnc(Cl)c3)n2)c(CC2CC2)n1
% of activity remaining [22]: 45%
% of activity remaining [23]: 32%
% of activity remaining [24]: 40%

Cc1sc2c(c1C)C(c1ccc(Cl)cc1)=N[C@@H](CC(=O)OC(C)(C)C)c1nnc(C)n1-2
% bound fraction [25]: 48%
dTm (CREB-binding protein): 1.04 K

From ChEMBL document CHEMBL5212743, “Selectivity Literature for EUbOPEN Chemogenomics Library wave 3” (2023)
